Among the test systems are A549 NSCLC; MALME-3M melanoma; NCI-H460 lung; OVCAR-3 ovarian; OVCAR-5 ovarian; SF-295 CNS; SK-MEL-2 melanoma; SK-MEL-5 melanoma; 786-0 renal; SK-OV-3 ovarian.
Holding throughout (experiment): NCI anticancer screen, dose series, 48 h

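Five compound concentrations were applied to cells in 96-well plates for 48 hours; endpoints were derived by simple linear interpolation of the resulting dose-response curve. GI50: concentration for 50% inhibition of growth. TGI is the concentration that stops growth completely.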 Bounds are passed on as bounds.

In the case of `O=C(Nc1cccc(-n2ccc3c(NC(=O)c4ccccc4)nccc32)c1)Nc1cc(C(F)(F)F)cc(C(F)(F)F)c1`, the GI50 is 1.97 µM in the test on A549 NSCLC; 3.09 µM with MALME-3M melanoma; 1.7 µM in the test on NCI-H460 lung; 1.28 µM with OVCAR-3 ovarian; 1.71 µM in the test on OVCAR-5 ovarian; 1.88 µM in the test with SF-295 CNS. Further, the values for the GI50 in the test on SK-MEL-2 melanoma and in the test on SK-MEL-5 melanoma were 1.32 µM and 0.946 µM, respectively. Moreover, the TGI with A549 NSCLC is more than 50 µM; with MALME-3M melanoma, 35.8 µM; with NCI-H460 lung, more than 50 µM; in the test with OVCAR-3 ovarian it was 3.18 µM; with OVCAR-5 ovarian, more than 50 µM; in the test with SF-295 CNS it was 30.5 µM. Moreover, the TGI in the test on SK-MEL-2 melanoma came out at 4.68 µM; in the test on SK-MEL-5 melanoma it was 1.95 µM.
For `Cc1c(Cl)c2ccccc2n1S(=O)(=O)c1ccccc1`, the TGI in the test on 786-0 renal, in the test with A549 NSCLC, in the test with MALME-3M melanoma, in the test on NCI-H460 lung, in the test on OVCAR-3 ovarian and in the test with OVCAR-5 ovarian was more than 100 µM throughout. The TGI in the test on SF-295 CNS, in the test on SK-MEL-2 melanoma and with SK-MEL-5 melanoma was more than 100 µM in each case.
Regarding `C[n+]1c(-c2ccc(/C=N/NC(=N)N/N=C/c3ccc(-c4cn5cc(Cl)ccc5[n+]4C)cc3)cc2)cn2cc(Cl)ccc21`, the TGI in the test on 786-0 renal, with A549 NSCLC, in the test on NCI-H460 lung, in the test on OVCAR-5 ovarian, in the test with SF-295 CNS and with SK-MEL-5 melanoma was more than 100 µM in each case. The compound also yielded a TGI in the test with SK-OV-3 ovarian of more than 100 µM.
For the compound `CC(C)(C)N=NNc1cn(C2OC(CO)C(O)C2O)c(=O)[nH]c1=O` (stereo not drawn), the TGI in the test with 786-0 renal, with A549 NSCLC, in the test with MALME-3M melanoma, with NCI-H460 lung, with OVCAR-3 ovarian and in the test with OVCAR-5 ovarian was more than 100 µM each time. The TGI in the test on SF-295 CNS, with SK-MEL-2 melanoma, in the test on SK-MEL-5 melanoma and in the test on SK-OV-3 ovarian was more than 100 µM each time.
With `CN1CCCC2(CCCc3ccccc32)C1` (stereo not drawn), the TGI in the test on 786-0 renal, with A549 NSCLC, with MALME-3M melanoma, in the test with NCI-H460 lung, with OVCAR-3 ovarian and with OVCAR-5 ovarian was more than 100 µM throughout. The TGI with SF-295 CNS, in the test with SK-MEL-2 melanoma, in the test with SK-MEL-5 melanoma and with SK-OV-3 ovarian was more than 100 µM throughout.
In the case of `CCc1cc(Cc2cc(Cl)c(NC(=O)C(=O)C3NC(=O)NC3=O)c(CC)c2)cc(Cl)c1NC(=O)C(=O)C1NC(=O)NC1=O` (stereo not drawn), the TGI in the test with 786-0 renal, with A549 NSCLC, with MALME-3M melanoma, in the test with NCI-H460 lung, in the test with OVCAR-3 ovarian and in the test on OVCAR-5 ovarian was more than 100 µM in each case. Moreover, the TGI in the test on SF-295 CNS, in the test with SK-MEL-2 melanoma, with SK-MEL-5 melanoma and with SK-OV-3 ovarian was more than 100 µM each time.
On to `Cc1ccc(S(=O)(=O)N/N=C(\c2nc3ccc(Cl)cc3[nH]c2=O)C(O)c2cccc([N+](=O)[O-])c2)cc1` (stereo not drawn), for which the TGI with 786-0 renal, with A549 NSCLC, in the test with MALME-3M melanoma, with NCI-H460 lung, in the test with OVCAR-3 ovarian and in the test on OVCAR-5 ovarian was more than 100 µM in each case. Moreover, the TGI with SF-295 CNS, in the test on SK-MEL-2 melanoma, in the test on SK-MEL-5 melanoma and in the test with SK-OV-3 ovarian was more than 100 µM each time.
In the case of `CCOC(=O)c1cc(-c2cc(OC)c(OC)c([N+](=O)[O-])c2)c([N+](=O)[O-])n1C`, the TGI in the test with 786-0 renal, in the test with A549 NSCLC, in the test with MALME-3M melanoma, in the test with NCI-H460 lung, with OVCAR-3 ovarian and in the test on OVCAR-5 ovarian was more than 10 µM each time. Also, the TGI in the test with SF-295 CNS and in the test on SK-MEL-2 melanoma was more than 10 µM each time.
Consider `Clc1ccc(SC(/C=C/NNC2=NC(c3ccccc3)C(c3ccccc3)=NN2)c2ccccc2)cc1` (stereo not drawn), for which the TGI in the test with 786-0 renal is more than 100 µM; with A549 NSCLC it was more than 100 µM; in the test on MALME-3M melanoma, 39.8 µM; in the test with NCI-H460 lung it was more than 100 µM; in the test with OVCAR-3 ovarian, 60.5 µM; in the test on OVCAR-5 ovarian it was more than 100 µM. The TGI with SF-295 CNS was 89.6 µM; in the test on SK-MEL-2 melanoma, 40.7 µM; in the test on SK-MEL-5 melanoma, 31.2 µM; in the test on SK-OV-3 ovarian it was more than 100 µM.
Turning to `COc1ccc(-c2cc(=O)c3cc4c(cc3[nH]2)OCO4)cc1OC`, the TGI in the test on 786-0 renal, in the test on A549 NSCLC, in the test on MALME-3M melanoma, with NCI-H460 lung, in the test on OVCAR-3 ovarian and in the test with SF-295 CNS was more than 100 µM in each case. The TGI in the test on SK-MEL-2 melanoma, with SK-MEL-5 melanoma and in the test on SK-OV-3 ovarian was more than 100 µM each time.
Take `O=c1[nH]c(=O)n(C2OC(COP(=O)(O)OP(=O)(O)OC3OC(CO)C(O)C(O)C3O)C(O)C2O)cc1F` (stereo not drawn): the TGI with 786-0 renal worked out at 2.68 µM; in the test with A549 NSCLC, 8.56 µM; in the test on MALME-3M melanoma, 20.9 µM; with NCI-H460 lung, 0.429 µM; in the test on OVCAR-3 ovarian, 4.73 µM; with OVCAR-5 ovarian, 5.33 µM. For the same compound, the TGI was more than 100 µM with SF-295 CNS, more than 91.3 µM with SK-MEL-2 melanoma, 23.7 µM in the test with SK-MEL-5 melanoma and more than 87.5 µM in the test with SK-OV-3 ovarian.
`O=S(=O)(CCBr)CCBr`: the TGI in the test on A549 NSCLC amounted to 27.8 µM; in the test with MALME-3M melanoma, 9.2 µM; with NCI-H460 lung, 29.9 µM; with OVCAR-3 ovarian, 12.3 µM; with OVCAR-5 ovarian, 26.7 µM; with SF-295 CNS, 29.8 µM. The TGI with SK-MEL-2 melanoma amounted to 26 µM; in the test on SK-MEL-5 melanoma, 19.8 µM; with SK-OV-3 ovarian it was 43.6 µM.
For the compound `O=C(c1ccc(Cl)cc1)c1ccc(OCCCOc2ccc(C(=O)c3ccc(Cl)cc3)cc2)cc1`, the TGI in the test with 786-0 renal, in the test on A549 NSCLC, in the test with MALME-3M melanoma, in the test with NCI-H460 lung, in the test on OVCAR-3 ovarian and with OVCAR-5 ovarian was more than 100 µM throughout. Besides, the TGI in the test on SF-295 CNS, in the test with SK-MEL-2 melanoma, in the test with SK-MEL-5 melanoma and in the test on SK-OV-3 ovarian was more than 100 µM each time.
